Data from patent publication US9113629B2, “4-amino-6-(4-substituted-phenyl)-picolinates and 6-amino-2-(4-substituted-phenyl)-pyrimidine-4-carboxylates and their use as herbicides” (DOW AGROSCIENCES LLC, priority 2013, dated 2015).

How the values were obtained:
Test in all cases: Post-emergent Test III, herbicidal activity in wheat and barley
Assay type in all cases: in vivo
[1] = system: MATSS: scented mayweed (Matricaria chamomilla), pineappleweed (Matricaria matricarioides); conditions: 21 days after application; for pest or weed control at 35 g/ha / pest or weed control at 70 g/ha: Matricaria chamomilla, post-emergence, 504 h, read-out: Visual Gorowth Reduction (%) 21 days After Application MATSS; for pest or weed control at 35 g/ha: 35 g ai/ha; for pest or weed control at 70 g/ha: 70 g ai/ha; for GR50 MATSS / GR80 MATSS: probit analysis; for GR50 MATSS: dose for 50 percent growth reduction; for GR80 MATSS: dose for 80 percent growth reduction
Summary of the method: (§1)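 GR20, GR50, GR80 and GR90 come from probit analysis of visual injury scores (0 = none, 100 = complete kill) taken 21 d after treatment. Foliar application was by track sprayer delivering 187 L/ha at five rates, from high down to 1/16×, onto greenhouse plants at the 2–3 leaf stage, with solvent-blank controls.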

[2] = system: TRZSS: wheat, including spring and winter (Triticum aestivum); conditions: 21 days after application; for pest or weed control at 35 g/ha / pest or weed control at 70 g/ha: Triticum aestivum, post-emergence, 504 h, read-out: Visual Gorowth Reduction (%) 21 days After Application TRZSS; for pest or weed control at 35 g/ha: 35 g ai/ha; for pest or weed control at 70 g/ha: 70 g ai/ha; for GR20 TRZSS: probit analysis, dose for 20 percent growth reduction (crop)
Summary of the method: as §1

[3] = system: SASKR: Russian thistle (Salsola iberica); conditions: 21 days after application; for pest or weed control at 35 g/ha / pest or weed control at 70 g/ha: Salsola tragus, post-emergence, 504 h, read-out: Visual Gorowth Reduction (%) 21 days After Application SASKR; for pest or weed control at 35 g/ha: 35 g ai/ha; for pest or weed control at 70 g/ha: 70 g ai/ha; for GR50 SASKR / GR80 SASKR: probit analysis; for GR50 SASKR: dose for 50 percent growth reduction; for GR80 SASKR: dose for 80 percent growth reduction
Summary of the method: as §1

[4] = system: VERPE: bird's-eye speedwell (veronica persica); conditions: 21 days after application; for pest or weed control at 35 g/ha / pest or weed control at 70 g/ha: Veronica persica, post-emergence, 504 h, read-out: Visual Gorowth Reduction (%) 21 days After Application VERPE; for pest or weed control at 35 g/ha: 35 g ai/ha; for pest or weed control at 70 g/ha: 70 g ai/ha; for GR50 VERPE / GR80 VERPE: probit analysis; for GR50 VERPE: dose for 50 percent growth reduction; for GR80 VERPE: dose for 80 percent growth reduction
Summary of the method: as §1

[5] = system: HORSS: barley, including spring and winter (Hordeum vulgare); conditions: 21 days after application; for pest or weed control at 35 g/ha / pest or weed control at 70 g/ha: Hordeum vulgare, post-emergence, 504 h, read-out: Visual Gorowth Reduction (%) 21 days After Application HORSS; for pest or weed control at 35 g/ha: 35 g ai/ha; for pest or weed control at 70 g/ha: 70 g ai/ha; for GR20 HORSS: probit analysis, dose for 20 percent growth reduction (crop)
Summary of the method: as §1

[6] = system: KCHSC: kochia (Kochia scoparia); conditions: 21 days after application; for pest or weed control at 35 g/ha / pest or weed control at 70 g/ha: Bassia scoparia, post-emergence, 504 h, read-out: Visual Gorowth Reduction (%) 21 days After Application KCHSC; for pest or weed control at 35 g/ha: 35 g ai/ha; for pest or weed control at 70 g/ha: 70 g ai/ha; for GR50 KCHSC / GR80 KCHSC: probit analysis; for GR50 KCHSC: dose for 50 percent growth reduction; for GR80 KCHSC: dose for 80 percent growth reduction
Summary of the method: as §1

[7] = system: VIOSS: wild pansy (Viola tricolor), field violet (Viola arvensis); conditions: 21 days after application; for pest or weed control at 35 g/ha / pest or weed control at 70 g/ha: Viola tricolor, post-emergence, 504 h, read-out: Visual Gorowth Reduction (%) 21 days After Application VIOSS; for pest or weed control at 35 g/ha: 35 g ai/ha; for pest or weed control at 70 g/ha: 70 g ai/ha; for GR50 VIOSS / GR80 VIOSS: probit analysis; for GR50 VIOSS: dose for 50 percent growth reduction; for GR80 VIOSS: dose for 80 percent growth reduction
Summary of the method: as §1

Compound | pest or weed control at 35 g/ha [1] [%] | pest or weed control at 70 g/ha [1] [%] | GR50 MATSS [1] [g ai/ha] | GR80 MATSS [1] [g ai/ha] | pest or weed control at 35 g/ha [2] [%] | pest or weed control at 70 g/ha [2] [%] | GR20 TRZSS [2] [g ai/ha] | pest or weed control at 35 g/ha [3] [%] | pest or weed control at 70 g/ha [3] [%] | GR50 SASKR [3] [g ai/ha] | GR80 SASKR [3] [g ai/ha] | pest or weed control at 35 g/ha [4] [%] | pest or weed control at 70 g/ha [4] [%] | GR50 VERPE [4] [g ai/ha] | GR80 VERPE [4] [g ai/ha] | pest or weed control at 35 g/ha [5] [%] | pest or weed control at 70 g/ha [5] [%] | GR20 HORSS [5] [g ai/ha] | pest or weed control at 35 g/ha [6] [%] | pest or weed control at 70 g/ha [6] [%] | other results
COc1c(N)nc(-c2ccc(Br)c(F)c2F)nc1C(=O)O [Compound 8] | 60 to 74 | 75 to 84 | 26 | 73 | 75 to 84 | 85 to 94 | 1 | 85 to 94 | 85 to 94 | 1 | 16 | 95 to 100 | 95 to 100 | 1 | 1 | 60 to 74 | 75 to 84 | 1 | 95 to 100 | 95 to 100 | GR50 KCHSC [6]: 3 g ai/ha; GR80 KCHSC [6]: 6 g ai/ha; pest or weed control at 35 g/ha [7]: 85 to 94%; pest or weed control at 70 g/ha [7]: 85 to 94%; GR50 VIOSS [7]: 13 g ai/ha; GR80 VIOSS [7]: 28 g ai/ha
Nc1c(F)c(-c2ccc(Br)c(F)c2)nc(C(=O)O)c1Cl [Compound 21] | 85 to 94 | 85 to 94 | 5 | 31 | 75 to 84 | 85 to 94 | 1 | 75 to 84 | 85 to 94 | 1 | 25 | 30 to 44 | 0 to 29 | 130 | >140 | 85 to 94 | 95 to 100 | 1 | 95 to 100 | 95 to 100 | GR50 KCHSC [6]: 1 g ai/ha; GR80 KCHSC [6]: 1 g ai/ha; pest or weed control at 35 g/ha [7]: 95 to 100%; pest or weed control at 70 g/ha [7]: 95 to 100%; GR50 VIOSS [7]: 4 g ai/ha; GR80 VIOSS [7]: 6 g ai/ha
Nc1cc(-c2ccc(I)c(F)c2F)nc(C(=O)O)c1Cl [Compound 38] | 60 to 74 | 85 to 94 | 21 | 56 | 85 to 94 | 85 to 94 | 1 | 60 to 74 | 60 to 74 | 17 | 68 | 30 to 44 | 60 to 74 | 42 | 112 | 85 to 94 | 85 to 94 | 1 | 85 to 94 | 85 to 94 | GR50 KCHSC [6]: 1 g ai/ha; GR80 KCHSC [6]: 24 g ai/ha; pest or weed control at 35 g/ha [7]: 95 to 100%; pest or weed control at 70 g/ha [7]: 95 to 100%; GR50 VIOSS [7]: 13 g ai/ha; GR80 VIOSS [7]: 26 g ai/ha
COC(=O)c1nc(-c2ccc(Br)cc2F)c(F)c(N)c1Cl [Compound 52] | 0 to 29 | 60 to 74 | 62 | 91 | 85 to 94 | 85 to 94 | 1 | 60 to 74 | 75 to 84 | 4 | 84 | 75 to 84 | 95 to 100 | 20 | 37 | 85 to 94 | 95 to 100 | 1 | 75 to 84 | 85 to 94 | GR50 KCHSC [6]: 5 g ai/ha; GR80 KCHSC [6]: 38 g ai/ha; pest or weed control at 35 g/ha [7]: 95 to 100%; pest or weed control at 70 g/ha [7]: 95 to 100%; GR50 VIOSS [7]: 12 g ai/ha; GR80 VIOSS [7]: 19 g ai/ha
COc1c(N)nc(-c2ccc(I)cc2F)nc1C(=O)O [Compound 72] | 0 to 29 | 30 to 44 | 126 | >140 | 75 to 84 | 85 to 94 | 1 | 30 to 44 | 60 to 74 | 48 | 106 | 85 to 94 | 95 to 100 | 1 | 8 | 45 to 59 | 60 to 74 | 5 | 60 to 74 | 60 to 74 | GR50 KCHSC [6]: 27 g ai/ha; GR80 KCHSC [6]: 105 g ai/ha; pest or weed control at 35 g/ha [7]: 30 to 44%; pest or weed control at 70 g/ha [7]: 45 to 59%; GR50 VIOSS [7]: 67 g ai/ha; GR80 VIOSS [7]: >140 g ai/ha
